Experimental data: patent US6120997A, “Nucleic acid binders having an hydroxyamine motif” (The Scripps Research Institute, priority 1998, dated 2000)

Assays:
[1] = NMR dilution experiments with chloride counterion in DMSO-d6; assay type: binding
Procedure: (§1) [a] NMR dilution experiments with the preformed 1:1 salt complexes were performed in DMSO-d6 at […]; [b] calculated maximum shift at full complexation in ppm.
(§2) In order to determine binding constants we prepared defined 1:1 salt complexes and measured their dissociation upon stepwise dilution in [D6 ]DMSO by following the shifts of NH and OH resonances. The chemical shift values of the totally uncomplexed state (o) and the fully complexed state (n) and the stability constant Ka were subsequently determined by curve fitting. […] In all cases, data could be fitted to a 1:1 binding isotherm. […] This order mirrors the order of binding affinities and is consistent with the interpretation that differential involvement of the hydroxyl group in hydrogen bonding provides for the energetic differences in complexation.

[2] = NMR dilution experiments of 1:1 salt complexes in DMSO-d6 (phosphodiester recognition); assay type: binding
Procedure: as §1, §2

[3] = NMR binding study with dimethylphosphate in water; conditions: concentration ranges accessible by NMR
From the text: (§3) To investigate whether 1,3-hydroxyamine substructures may be involved in binding in aqueous solution, we turned our attention to neamine (12; FIG. 4), a pseudodisaccharide substructure commonly found in a wide range of aminoglycoside antibiotics. […] These weak forces may, however, be enhanced by increasing the charge of the interacting species. In fact, many recognition events involving nucleic acids--including those by aminoglycosides--are likely to have a strong contribution from their polyionic character. We therefore turned our attention to sulfate, as it is a tetrahedral oxyanion similar to phosphate and its double negative charge mimics the effect of a polyanion. Furthermore, it has a defined ionization state. Since the spectra of aminoglycosides are highly dependent on pH, and even minor pH changes can outweigh any small complexation induced shifts, we performed binding studies at low pH, where neamine is fully protonated. […] Analysis of ^13 C-NMR spectra provided a clearer picture (FIG. 4). […] Thus, the selectivity found in aqueous solution is in full agreement with the order of binding affinities determined in the model compounds.

[4] = test system: Escherichia coli (ATCC 25922); test: minimum inhibitory concentration, broth dilution technique; assay type: cell-based; conditions: E. coli, liquid culture
From the text: We reasoned that this modification would provide the cleanest test for probing the ionic contribution, since hydrogen bond donor abilities, electronegativity and steric demand are similar for both functional groups. In order to learn how well the model system correlates with in vivo activity, we checked the new compounds for antibacterial activity against three bacterial strains using the disc method (Kirby-Bauer technique). The minimum inhibitory concentrations (MICs) of the compounds were then determined using the broth dilution technique. For antibiotic testing protocols, see: (a) Disk testing protocols: Phillips, I.; Williams, D., in Laboratory Methods in Antimicrobial Chemotherapy, Garrod, L. (ed.) Churchill Livingstone Press: Edinburgh, 1978, pp. 3-30. (b) MIC determination: Waterworth, P. M., in Laboratory Methods in Antimicrobial Chemotherapy, Garrod, L. (ed.) Churchill Livingstone Press: Edinburgh, 1978, pp. 31-40; Barry, A. L. The Antimicrobic Susceptibility Test: Principles and Practice, Lea and Febiger: Philadelphia (1976). (c) Standards: Lorian, V., Antibiotics in Laboratory Medicine (2nd. ed.), Williams and Wilkins: Baltimore, 1986.
FIG. 39A gives the zone diameters measured for the three bacterial strains. The zone diameters measured for the strains with known antibiotics are well within the accepted limits. […] It is worth noting that some testing protocols recommend overnight growth of the cultures, rather than the minimum time required to obtain good growth of the control. MIC values were tested for several of the control antibiotics using overnight growth, and the MIC values observed were 2-4× greater than those observed for 4-6 hour growth.
Minimal Inhibitory Concentration (MIC) testing. E. coli ATCC 25922 was grown in Mueller-Hinton broth (cation-adjusted, BBL Microbiology Systems) to an optical density of approx. 0.5 (absorbance read at 600 nm), then diluted to an OD600 of 0.1. Samples of antibiotic were prepared in Mueller-Hinton broth, typically a series of 2-fold dilutions from […]. […] The absorbance of each sample was read (1=600 nm), and MIC was considered to be the lowest antibiotic concentration at which the absorbance was less than 1% of the no-antibiotic control.

AS-wt = test: SPR binding of aminoglycosides to decoding region A-site model AS-wt; parameters: species or system E. coli
Procedure: The RNA binding properties of 100-800 were analyzed using a surface plasmon resonance based assay that was recently developed in these laboratories. This assay allows the determination of both affinity and specificity of small molecule-RNA interactions. For the analysis, the compounds were injected over a matrix containing RNA that was immobilized through a biotin tag and the equilibrium binding values were recorded at various concentrations.
Non-linear curve fitting was then used to determine the values of the dissociation constants (KD). The specificity of binding, i.e. the ability to discriminate between different RNA sequences was evaluated by comparing the binding to the target sequence (AS-wt) and the negative control (AS-U1495A). The ratio of KD(AS-U1495A) to KD(AS-wt) was taken to be a representation of the specificity of the binding event.
For the quantitative measurement of aminoglycoside binding to these sequences, we utilized our recently developed SPR-based assay. Biotinylated derivatives of all sequences were prepared by in vitro transcription in the presence of guanosine 5'-monophosphorothioate followed by alkylation with a biotin iodoacetamide derivative. The RNA conjugates were then immobilized onto streptavidin coated SPR-sensorchips for analysis.
In the same manner as illustrated for paromomycin, a panel of aminoglycosides was screened and the results are compiled in the table of FIGS. 46 and 47. In addition to the naturally occuring aminoglycoside antibiotics, some of the compounds in FIG. 46 are synthetically derived, unnatural aminoglycosides. The number of independent determinations for each dissociation constant ranged from 1-3. […] All data were recorded under near physiological salt conditions (HBS-buffer: 150 mM NaCl, 10 mM HEPES, pH7.4, 3.4 mM EDTA) unless noted otherwise. Data points were taken at concentrations ranging from […]. Below this concentration range, surface transport limitations prevent the attainment of equilibrium.
Plasmon resonance and antimicrobial testing for Example 4. Synthesis of the biotinylated RNA and surface plasmon resonance detected binding experiments were performed as described vida supra. Solution conditions: 150 mM NaCl, 10 mM HEPES (pH 7.4), 3.4 mM EDTA. KD determination from the binding curves.
The fitting routine of the program kaleidagraph was used for all calculations. The starting values for a and b were set to 1 and 0 respectively. The number of KD values used in the fitting was adjusted depending on the observed range of equivalents bound but generally varied from 3 to 4.
General Procedures for SPR Binding Studies done in Example 5. Samples were prepared by serial dilutions from stock solutions in RNase free microfuge tubes (Ambion) and were centrifuged at 14000 rpm for degassing. Unless otherwise noted, all binding studies were carried out using HBS buffer (Pharmacia Biosensor AB) which was used as obtained. All procedures for binding studies were automated as methods using repetitive cycles of sample injection and regeneration. Typically, buffer was injected in the first two cycles to establish a stable baseline value. Samples were injected at a flowrate of […] using either the KINJECT command. All aminoglycoside samples were injected from autoclaved 7 mm plastic vials that were capped with pierceable plastic crimp caps. To minimize carry over, samples were injected in order of increasing concentration. The running buffer was identical to the injection buffer. Expected values for the equilibrium response of one equivalent of analyte were calculated from the relative molecular weight of the analyte and the immobilized RNA ligand in each flowcells and adjusted with a correction factor of 0.76 which arises from the different molar refractive indices of RNA and the analyte. […]

[5] = 13C-NMR titration of neamine with sodium sulfate in water; assay type: binding; conditions: pH 3.5
From the text: FIGS. 4A-4D illustrate the titration of neamine (12) with sodium sulfate at pH 3.5: (A) Titration curve for C1'. (B) Job plot; x=% complex formation. (C) Structure of neamine indicating the sites of maximum observed shift. (D) Maximum observed shift.
as §3

[6] = test system: bacterial protein synthesis; conditions: cited from earlier work
[7] = target: Rev27 (synthetic Rev34-50 RNA-binding peptide with flanking Ala and N-terminal Cys) (Human immunodeficiency virus 1) (UniProt P04618); test: SPR; conditions: pH 7.4, 10 mM HEPES, 150 mM NaCl, 150 mM Na2SO4, 3.4 mM EDTA, 5 mM DTT, 10 C; 1:1; FIG. 7 legend gives 200 nM; Kd <10 nM at 5 C in 300 mM NaCl without sulfate
UniProt P04618, sequence (P04618 whole entry): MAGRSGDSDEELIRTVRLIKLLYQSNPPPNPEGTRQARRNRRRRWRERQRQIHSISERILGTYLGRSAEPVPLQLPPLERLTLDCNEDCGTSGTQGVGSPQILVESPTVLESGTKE

In the case of CO[C@H]1O[C@H](CNCc2ccccc2)[C@@H](O)[C@H](OCc2ccccc2)[C@H]1OCc1ccccc1 [Compound 3], the “chloride binding (in words)” value [1] is reported as “lower chloride binding compared to 2, 4 and 5” and the “selectivity for dimethylphosphate over chloride” value [2] is reported as 7 fold.

For NC[C@H]1O[C@H](O[C@H]2[C@H](O)[C@@H](O)[C@H](N)C[C@@H]2N)[C@H](N)[C@@H](O)[C@@H]1O [Neamine], the “binding to dimethylphosphate in water (in words)” value [3] was “no detectable binding”, the “antibacterial activity / MIC compared with neomycin B (in words)” value [4] was “inferior anti microbial activity” and the Kd (AS-wt; 150 mM NaCl, 10 mM HEPES (pH 7.4), 3.4 mM EDTA, read-out: dissociation constant, AS-wt) was 7.8 µM. For the same compound, the “specificity for AS-wt over negative controls (in words)” value (AS-wt; Example 5, HBS-buffer) was “moderate specificity for AS-wt over AS-U1495A”, the “specificity for AS-wt relative to AS-U1495A” value (AS-wt; KD(AS-U1495A)/KD(AS-wt)) was “approximately 4 fold” and the “binding stoichiometry with sulfate (method of Job)” value [5] was 1:1 complex. For the same compound, the “effect on bacterial protein synthesis (in words)” value [6] was “induces miscoding during translation”.

wt-RRE-II gave a Kd [7] of 0.215 µM.
